Earlier results as cited in patent US20140106008A1, “GLYCEROL COMPOSITIONS AND SOLUTIONS” (BIO-ENERGY INGREDIENTS LIMITED, priority 2011, published 2014).

System: exposed organisms
Conditions: aquatic toxicity

For OCC(O)CO [Glycerol, propane-1,2,3-triol], the “TLm96 value, concentration that will kill 50% of the exposed organisms in 96 hours” value is listed as “over 1000 mg/litre”.
